# Laboratory results: patent publication US9144570B2, “Method to enhance delivery of glutathione and ATP levels in cells” (Max International LLC, priority 2004, dated 2015)
# “Also recorded” adds a separate entry of the source.
# Tests used:
# mice [1] = details: cited from earlier work
# Rat hepatocytes [2] = test: Inhibitory effect of BSO on GSH elevation elicited by L-cysteine prodrugs in rat hepatocytes; type: cell-based
# Experimental: (§1) Rat hepatocytes were isolated following the methods of P. O. Seglen, Exper. Cell Res., 74, 450 (1972). After final plating, the hepatocytes were maintained in culture for 24 hr prior to use. Only primary cultures were used throughout the studies. […] Total GSH content (GSH+GSSG) was determined by a modification of the DTNB [5,5′-dithiobis(2-nitrobenzoic acid)] glutathione reductase recycling method of F. Tietze, Anal. Biochem., 27, 502 (1969). The GSH concentration in the sample was quantified by determining the cycling rate (ΔOD at 412 nm/min) of the sample.
# Rat hepatocytes [3] = test: Glutathione content of isolated rat hepatocytes after incubation with L-cysteine prodrugs; type: cell-based; details: for [GSH] Rel. to Controls. / [GSH] ± SE: 4-hr incubation, RibCys 1.0 mM, NAC 2.5 mM; for [GSH] ± SE: total GSH (GSH+GSSG)
# Experimental: as §1
# mice [4] = details: RibCys; 1 g/kg in mice; cited from earlier work
# tumor-bearing CDF1 mice = details: 8 mmol/kg i.p., cited from earlier work
# mice [5] = details: RibCys 8 mmol/kg; cited from earlier work
# human subjects = details: administered directly to human subjects, wide dosage ranges; cited from earlier work
# healthy human subjects = details: oral, 8-10 g per day, adult; cited from earlier work
# canine heart = details: cited from earlier work
# [6] = prodrug 1.0 mM, cells pre-exposed to BSO 0.2 mM
structure (smiles),measurement,setting,value
"CC1N[C@H](C(=O)O)CS1 (stereo partly drawn) [2(R,S)-methyl-thiazolidine-4R-carboxylate]",protection of mice from hepatotoxic dosages of acetaminophen,mice [1],protect mice from heptatotoxic dosages of acetaminophen
"CCCCCC1N[C@H](C(=O)O)CS1 (stereo partly drawn) [2(R,S)-n-pentyl-thiazolidine-4R-carboxylate]",protection of mice from hepatotoxic dosages of acetaminophen,mice [1],protect mice from heptatotoxic dosages of acetaminophen
"CCCC1N[C@H](C(=O)O)CS1 (stereo partly drawn) [2(R,S)-n-propyl-thiazolidine-4R-carboxylate]",protection of mice from hepatotoxic dosages of acetaminophen,mice [1],protect mice from heptatotoxic dosages of acetaminophen
"CCCCS(=N)(=O)CCC(N)C(=O)O (stereo not drawn) [BSO, Buthionine Sulfoximine]",[GSH] Rel. to Controls.,"Rat hepatocytes [2]; BSO 0.2 mM alone, no prodrug",0.5
same,[GSH] ± SE,"Rat hepatocytes [2]; BSO 0.2 mM alone, no prodrug",18.4 ± 2.08 nmol/10^6 cells
O=C1N[C@H](C(=O)O)CS1 [L-2-oxothiazolidine-4-carboxylate],protection of mice from hepatotoxic dosages of acetaminophen,mice [1],protect mice from heptatotoxic dosages of acetaminophen
"CC(=O)N[C@@H](CS)C(=O)O [N-Acetyl-L-cysteine (NAC), N-Acetyl-L-cysteine]",[GSH] Rel. to Controls.,Rat hepatocytes [3],1.3
same,GSH levels raised by,"Rat hepatocytes [3]; NAC, 2.5 times the concentration of the thiazolidine prodrugs",30%
same,[GSH] ± SE,Rat hepatocytes [3],45.8 ± 1.27 nmol/10^6 cells
same,protection of mice from hepatotoxic dosages of acetaminophen,mice [1],protect mice from heptatotoxic dosages of acetaminophen
same,[GSH] Rel. to Controls.,Rat hepatocytes [2]; [6],0.7
same,[GSH] ± SE,Rat hepatocytes [2]; [6],25.5 ± 1.59 nmol/10^6 cells
"O=C(O)[C@@H]1CSC(C(O)C(O)C(O)CO)N1 (stereo partly drawn) [RibCys, 2(R,S)-D-ribo-1′,2′,3′,4′-Tetrahydroxybutylthiazolidine-4(R)-carboxylic Acid]",[GSH] Rel. to Controls.,Rat hepatocytes [3],about 1.7
same,[GSH] Rel. to Controls.,Rat hepatocytes [3]; listed as RibCys (Ia),1.7
same,[GSH] ± SE,Rat hepatocytes [3],61.2 ± 1.52 nmol/10^6 cells
same,protection against radiation-induced bowel injury,mice [4],protect the large and small bowel against radiation injury; also recorded: protect mice against irradiation-induced bowel injury
same,protection against acetaminophen hepatic and renal toxicity,"mice [1]; RibCys, 2 g/kg in mice",effective to protect against acetaminophen-induced hepatic and renal toxicity; also recorded: protect mice against acetaminophen hepatic and renal toxicity
same,GSH in the liver compared to untreated controls,tumor-bearing CDF1 mice; 16-h time point,1.5 fold
same,GSH in bladder relative to controls,tumor-bearing CDF1 mice; maximal GSH content,2.1 fold
same,GSH in muscle relative to control animals,tumor-bearing CDF1 mice; maximal GSH content,2.5 times
same,Kidney GSH relative to control values,tumor-bearing CDF1 mice; maximal at 16 h,1.6 times control values
same,GSH in implanted L1210 tumors relative to controls,tumor-bearing CDF1 mice,1.2 fold
same,protection of mice exposed to cyclophosphamide,mice [5],deliver effective protective amounts of cysteine to mice exposed to cyclophosphamide
same,[GSH] Rel. to Controls.,Rat hepatocytes [2]; [6],0.5
same,[GSH] ± SE,Rat hepatocytes [2]; [6],16.2 ± 3.60 nmol/10^6 cells
O=C[C@H](O)[C@H](O)[C@H](O)CO [ribose],toxicity,human subjects,essentially non-toxic
same,exercise capacity,healthy human subjects,increase exercise capacity
same,decrease in the ATP recovery time,"canine heart; 80 mM ribose in normal saline, about 1 ml/min for about 24.0 hours, about 550-700 mg/kg",eight-fold decrease
same,recovery of ATP levels in heart recovering from ischemia,canine heart; intravenous perfusion,recovery of ATP levels is enhanced
same,ATP levels in dogs subjected to ischemia (heart attack model),canine heart; ribose about 3 g/day for at least 5 days,effectively restored and maintained ATP levels
